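Cells were grown in 96-well plates and exposed to each compound for 48 hours at five concentrations; endpoints were interpolated linearly between bracketing concentrations, or set to the highest concentration if not reached. At the TGI there is no net growth.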
Tested on: U251 CNS
Test: inhibition of tumour cell growth, NCI panel, 48 h

SMILES	TGI [µM]
C[N+]12C=CC=C1C(N1CCCC1)c1scc(-c3ccc(Br)cc3)c12 (stereo not drawn)	24.7
C[C@]12c3c4cc(NC(=O)C(=O)NCc5ccc(-c6ccccn6)nc5)cc3Oc3cc(NC(=O)C(=O)NCc5ccc(-c6ccccn6)nc5)cc(c31)OC1C=C(NC(=O)C(=O)NCc3ccc(-c5ccccn5)nc3)C=C(O4)C12 (stereo partly drawn)	> 100
COC(=O)c1cccc(C)c1C1CN=NC12Cc1cc(C)cc(C)c1C2=O (stereo not drawn)	> 100
O=C1c2ccccc2-n2nnnc2C2CSCN12 (stereo not drawn)	> 100
C/C(=N\NC(N)=S)c1ccc2c(c1)Sc1ccccc1O2	11.7
O=c1[nH]c(=O)c2c3n(cc2[nH]1)CCCCC3	> 100
COc1ccc(C(C)NNC(=O)c2ccncc2)cc1OC (stereo not drawn)	> 100
CCOC(=O)C12OC(OCC)(CC1(OCC)OCC)C1(CC1)C2=O (stereo not drawn)	> 100
O=C(C(=O)n1ccc2ccccc21)n1ccc2ccccc21	> 100
COc1ccc(C(SCCO)(c2ccccc2)c2ccc(OC)cc2)cc1	14.8
N#Cc1cccc(-n2[nH]c(=O)ccc2=O)c1	> 100
CC(N)/C(N)=N/O (stereo not drawn)	> 100
CCOC(=O)CCC(NC(=O)C(N)Cc1ccc(N(CCCl)CCCl)cc1)C(=O)OCC (stereo not drawn)	7.41
CCN(CC)CCCNC(=O)c1cc(-c2nccn2C)nc2ccccc12	> 100
COc1ccccc1CC(=O)C(O)(C(F)(F)F)C(F)(F)F	> 100
COc1ccc2oc3c(C)cc4c(OC)nnc(OC)c4c3c2c1	14.8
CC(C)=C[C@H]1C[C@H](C)[C@H]2CC[C@H](C)c3c2c1c(C)c1ncoc31	34
CCOC(=O)c1ccc(-c2cc(C)no2)[nH]1	> 100
O=C1/C(=C\c2ccc(Cl)cc2Cl)Sc2scc(-c3ccc(O)c(O)c3)[n+]21	25.5

Tested on: MDA-N
Test: inhibition of tumour cell growth, NCI panel, 48 h

SMILES	TGI [µM]
CCCCCCc1cc2cc(-c3cn4ccsc4n3)c(=O)oc2cc1O	> 22.8
N#CSC#CCCC#CSC#N	34.8
O=C(O)C1C2c3ccccc3C(c3ccccc32)C1C(=O)NCC1CC1 (stereo not drawn)	> 100
COC(=O)[C@]1(C)CCC[C@@]2(C)C1CC[C@@]13C=C(C(C)C)[C@@H](CC1=O)CC23 (stereo partly drawn)	> 100
O=c1c(F)cn(Cc2c(Cl)cccc2Cl)c(=O)n1Cc1c(Cl)cccc1Cl	> 31.6
C=CCNC(=S)N/C=C(\C#N)C(N)=O	> 100
O=c1[nH]c(=O)n(C2COC(CO)C2O)cc1F (stereo not drawn)	> 100
O=[N+]([O-])c1ccc2nc(Nc3ccccc3)c(Nc3ccccc3)nc2c1	2.23
COc1ccc(C2=CC(C(C)=C(C(N)=O)C(N)=O)C=C(c3ccc(Br)cc3)C2)c(OC)c1 (stereo not drawn)	> 100
CC(C)(CN1CCCCC1)C(/C=C/c1ccc(Cl)cc1)=N\NC(=O)N/N=C(/C=C/c1ccc(Cl)cc1)C(C)(C)CN1CCCCC1	10.7
NC(Cc1ccccc1)C(=O)NC(Cc1ccccc1)NC(=O)C(Cc1c[nH]c2ccccc12)C(=O)O (stereo not drawn)	> 100
CC(=O)CC1CCC(=O)/C=C/C(=O)OC(CC(C)=O)CCC(=O)/C=C/C(=O)O1 (stereo not drawn)	24
O=C1c2sc(-c3ccc(Cl)cc3)cc2-n2cccc21	> 100
CC(C)C(NC(=O)Oc1ccccc1)C(=O)NC1c2c(Br)sc(Br)c2C(=O)C1O (stereo not drawn)	> 25
O=C1SC(SCc2ccccc2)=NC12CC2c1ccccc1 (stereo not drawn)	49
O=C1NC2(CCN(CCc3ccccc3)CC2)Oc2ccccc21	> 100
Nc1ncc2c(n1)-c1ccccc1OC2N1CCCCC1 (stereo not drawn)	> 100

SMILES	TGI [µM]
Cc1ccc(S(=O)(=O)N2C3C=CC(C3)[C@@H]2C(Cl)(Cl)Cl)cc1 (stereo partly drawn)	86.9
COCOC1/C=C/CCCCC(=O)C(C)C#CC1 (stereo not drawn)	27
C[N+]12C=CC=C1C(N1CCCC1)c1scc(-c3ccc(Br)cc3)c12 (stereo not drawn)	98.2
C[C@]12c3c4cc(NC(=O)C(=O)NCc5ccc(-c6ccccn6)nc5)cc3Oc3cc(NC(=O)C(=O)NCc5ccc(-c6ccccn6)nc5)cc(c31)OC1C=C(NC(=O)C(=O)NCc3ccc(-c5ccccn5)nc3)C=C(O4)C12 (stereo partly drawn)	> 100
COC(=O)c1cccc(C)c1C1CN=NC12Cc1cc(C)cc(C)c1C2=O (stereo not drawn)	> 100
O=C1c2ccccc2-n2nnnc2C2CSCN12 (stereo not drawn)	> 100
C/C(=N\NC(N)=S)c1ccc2c(c1)Sc1ccccc1O2	2.31
O=c1[nH]c(=O)c2c3n(cc2[nH]1)CCCCC3	> 100
COc1ccc(C(C)NNC(=O)c2ccncc2)cc1OC (stereo not drawn)	> 100
CCOC(=O)C12OC(OCC)(CC1(OCC)OCC)C1(CC1)C2=O (stereo not drawn)	> 100
O=C(C(=O)n1ccc2ccccc21)n1ccc2ccccc21	> 100
COc1ccc(C(SCCO)(c2ccccc2)c2ccc(OC)cc2)cc1	20.3
CC(N)/C(N)=N/O (stereo not drawn)	> 100
CCOC(=O)CCC(NC(=O)C(N)Cc1ccc(N(CCCl)CCCl)cc1)C(=O)OCC (stereo not drawn)	4.98
CCN(CC)CCCNC(=O)c1cc(-c2nccn2C)nc2ccccc12	> 100
COc1ccccc1CC(=O)C(O)(C(F)(F)F)C(F)(F)F	> 100
COc1ccc2oc3c(C)cc4c(OC)nnc(OC)c4c3c2c1	> 100
